# From patent US4483872A, “Non-classical topical treatment for glaucoma using n-substituted sulfonamides” (University of Iowa Research Foundation, priority 1983, dated 1984)
# Tests used:
# [1] = test system: eye of normal adult white rabbits; assay: IOP after topical drops of 1% solution, Examples 6 and 7; format: in vivo, rabbit; set-up: unit: mm Hg; settings: 3 drops
# Protocol: A 1% solution of 1-(N-hydroxy-N-methylsulfamido)-4-chlorobenzene and a 1% solution of 1-(N-hydroxy-N-methyl-sulfamido)-4-nitrobenzene were prepared for two separate experiments, examples 6 and 7 resepctively. The vehicle consisted of aqueous pH 7.2 phosphate buffer. One drop, followed by two drops each at one minute intervals, was applied to one eye of normal adult white rabbits. Six rabbits were used in example 6 and twelve rabbits in example 7. The treated eye was selected randomly, whereas, the fellow eye received placebo. The observer was masked. The intraocular pressure (IOP) was measured with a Digilab pneumotonometer, initially and every ten minutes for 180 minutes in each experiment following instillation of the anti-glaucoma agent. A drop of local anesthetic was applied to each eye just prior to making the measurement.
# [2] = biological target: carbonic anhydrase; assay: in vitro carbonic anhydrase activity, simplified method of Maren; format: biochemical
# Protocol: The procedure required the use of a specialized glass reaction vessel to which was added 0.4 ml phenol red indicator (0.00125%), 0.25 to 0.30 ml heparinized blood containing 2 enzyme units of carbonic anhydrase, 0.1 ml drug solution (0.01 to 100 mg/L) and 0.1 ml of 0.255 M carbonate buffer. […] Water was added to the reaction vessel which was kept in a water bath at 0±0.25° C. The reaction cell was constantly purged with CO2 at a rate of 200 to 250 ml/min. Each reagent was added at a specified time and in a specified order. […] The time required for the reaction begins with the addition of carbonate buffer and was completed with the indicator changed from red to yellow. […] Reaction time was the time for the uncatalyzed reaction time. The reaction times remain constant once equilibration has been attained. By varying the time before adding the carbonate buffer and then determining the reaction time, the equilibration time can be accurately determined. The reaction time was averaged over three determinations. A range of drug concentrations were reacted and the concentration of drug causing 50% inhibition of enzyme (I50) read from a plot of reaction time against drug concentration. (If two enzyme units are added, then the concentration of drug yielding a reaction time corresponding to the activity of one unit is taken as the I50). An enzyme unit (e.u.) was calculated from: [formula]
# [3] = test system: eye of normal adult white rabbits; assay: Salted rabbit test: intraocular pressure (IOP) after topical drops; format: in vivo
# Protocol: In particular, an initial drop from the test formulation followed by two drops at one minute intervals are applid to one eye of each of six adult white rabbits that had been maintained on a diet containing 0.5% sodium. The treated eye was selected randomly, whereas, the fellow eye received placebo; the observer was masked. Results identified a small but significant reduction of intraocular pressure in the treated eye at 30, 60 and 120 minutes.
# One drop, followed by two drops each at one minute intervals, was applied to one eye of normal adult white rabbits. Six rabbits were used in the experiment. The treated eye was selected randomly, whereas, the fellow eye received placebo. The observer was masked. The intraocular pressure (IOP) was measured with a Digilab Pneumotonometer, initially and every ten minutes for 120 minutes following instillation of the anti-glaucoma agent. A drop of local anesthetic was applied just prior to making the measurement.
# IOP* Changes = (IOPDET - IOPCET) - (IOPDEO - IOPCEO)
# IOPDET = measurement (mm Hg) of dosed eye at time t.
# IOPDEO = measurement (mm Hg) of dosed eye at t = 0, but prior to
# […] = IOP measurement (mm Hg) of control (nondosed) eye at time t
# IOPCEO = IOP measurement (mm Hg) of control eye at time t = 0
# *Difference in IOP measurements (mm Hg) between both eyes just prior to
# dosing at t = 0 (i.e., IOPDEO - IOPCEO).
smiles,measurement,setting,value
CN(O)S(=O)(=O)c1ccc(Cl)cc1 [1-(N-hydroxy-N-methylsulfamido)-4-chlorobenzene],"IOP changes, Ave. change","[1]; Example 6, 0 min",0.417
same,"IOP changes, Ave. change","[1]; Example 6, 20 min",0.617
same,"IOP changes, Ave. change","[1]; Example 6, 40 min",1.00
same,"IOP changes, Ave. change","[1]; Example 6, 60 min, probability less than 0.025",-1.25
same,"IOP changes, Ave. change","[1]; Example 6, 80 min",0.167
same,"IOP changes, Ave. change","[1]; Example 6, 100 min",0.667
same,"IOP changes, Ave. change","[1]; Example 6, 120 min",0.333
same,"IOP changes, Ave. change","[1]; Example 6, 140 min",-.333
same,"IOP changes, Ave. change","[1]; Example 6, 160 min",-0.25
same,"IOP changes, Ave. change","[1]; Example 6, 180 min",-0.25
"CNS(=O)(=O)c1nnc(NC(C)=O)s1 [methyl acetazolamide, N-methyl-2-acetylamino-1,3,4-thiadiazole-5-sulfonamide]",averaged I50 (concentration of drug causing 50% inhibition of enzyme),"[2]; 2 enzyme units of carbonic anhydrase in heparinized blood, 0° C., averaged over three determinations",0.520 mg
same,in vitro activity,[2]; in vitro,inactive in vitro
same,activity relative to acetazolamide (ratio of I50 values),[2]; ratio 0.52/0.00914,1/60
same,"IOP difference between both eyes, Av. Chg.","[3]; 0 min, just prior to dosing (baseline, IOPDEO - IOPCEO), six rabbits",1.83 mm Hg
same,"lowering of IOP, statistical significance","[3]; 1% w/v suspension, 3 drops, all time intervals to 120 min",statistically significant at all time intervals
same,reduction of intraocular pressure,[3]; after topical administration,able to reduce intraocular pressure
CN(O)S(=O)(=O)c1ccc([N+](=O)[O-])cc1 [1-(N-hydroxy-N-methyl-sulfamido)-4-nitrobenzene],"IOP changes, Ave. change","[1]; Example 7, 0 min",0.167
same,"IOP changes, Ave. change","[1]; Example 7, 10 min",0.333
same,"IOP changes, Ave. change","[1]; Example 7, 20 min",-0.333
same,"IOP changes, Ave. change","[1]; Example 7, 30 min",-.667
same,"IOP changes, Ave. change","[1]; Example 7, 40 min, probability less than 0.05",-1.67
same,"IOP changes, Ave. change","[1]; Example 7, 50 min, probability less than 0.025",-1.83
same,"IOP changes, Ave. change","[1]; Example 7, 60 min, probability less than 0.025 (footnote)",1.67
same,"IOP changes, Ave. change","[1]; Example 7, 70 min, probability less than 0.025",-2.0
same,"IOP changes, Ave. change","[1]; Example 7, 80 min, probability less than 0.05",-1.167
same,"IOP changes, Ave. change","[1]; Example 7, 90 min",0.2
same,"IOP changes, Ave. change","[1]; Example 7, 100 min",-0.5
same,"IOP changes, Ave. change","[1]; Example 7, 110 min",-0.33
same,"IOP changes, Ave. change","[1]; Example 7, 120 min",-1.00
